ChEMBL document CHEMBL1156829 (Proc Natl Acad Sci U S A, 2008)

Legend:
Plasmodium falciparum [1] = assay: NOVARTIS: Inhibition of Plasmodium falciparum 3D7 (drug-susceptible) proliferation in erythrocyte-based infection assay; assay type: functional, organism-based; conditions: Plasmodium falciparum, 3D7
Plasmodium falciparum [2] = assay: NOVARTIS: Inhibition of Plasmodium falciparum W2 (drug-resistant) proliferation in erythrocyte-based infection assay; assay type: functional, organism-based; conditions: Plasmodium falciparum, W2; read-out: EC50
[3] = NOVARTIS: Cytotoxicity against human hepatocellular carcinoma cell line (Huh7); assay type: toxicity, cell-based, Huh-7; conditions: Huh7 cells (hepatocellular carcinoma cell line)

Row | SMILES | EC50 (Plasmodium falciparum [1]) | EC50 (Plasmodium falciparum [2]) | CC50 [3]
1 | O=C(C1CC=CCC1)N1CCCC(c2ncncc2-c2ccncc2)C1 (configuration not stated) | 1370 nM | > 1250 nM | > 10 µM
2 | Cc1ccc2nc(-c3ccccc3)cc(C(=O)Nc3ccc(Cl)c(Cl)c3)c2c1 | > 1250 nM | 1700 nM | > 10 µM
3 | CN(C)c1ccc(C=Cc2nc(=O)c3ccccc3o2)cc1 | 95.9 nM | 96.1 nM | > 100 µM
4 | O=C(Nc1ccc(-c2nnc(-c3ccccc3)o2)cc1)c1ccc(Br)cc1 | 750 nM | > 1250 nM | > 10 µM
5 | CCNc1nc(NC(C)C)nc(NC(N)NOC)n1 (configuration not stated) | > 1150 nM | > 1400 nM | > 10 µM
6 | CC(CN1CCC(n2cc(C(=O)N3CCCC3)nn2)CC1)c1ccccc1 (configuration not stated) | 2410 nM | 1020 nM | > 100 µM
7 | COc1ccc(Nc2nc(Nc3ccc(OC)cc3)c3ccccc3n2)cc1 | 57.3 nM | 51.9 nM | 2.1 µM
8 | O=S(=O)(NC1=CC2C(=Nc3ccc(NS(=O)(=O)c4ccc(Br)cc4)cc3N2c2ccccc2)C=C1)c1ccc(Br)cc1 (configuration not stated) | 929 nM | > 1470 nM | > 10 µM
9 | Nc1c(Cl)c(Cl)nc(C(Cl)(Cl)Cl)c1Cl | 448 nM | 286 nM | > 100 µM
10 | CN1CCN(NC=C2C(=O)N(c3nc4ccccc4s3)N=C2c2ccccc2)CC1 | > 12500 nM | 2300 nM | > 100 µM
11 | COc1ccccc1CCNCc1cc(-c2ccc(F)cc2)ccc1O | 1050 nM | 869 nM | > 10 µM
12 | Cc1ccc(NC(=O)c2sc3nc4c(c(-c5cccs5)c3c2N)CCCCC4)cc1 | 5570 nM | 1560 nM | > 100 µM
13 | Cc1c(C#N)c2ccccc2n1CC(=O)Nc1ccc(Br)cc1 | 771 nM | 1030 nM | 11.1 µM
14 | Cc1cc(C)cc(NC(=O)CCCn2c3ccccc3c(=O)c3cc(C)ccc32)c1 | 4280 nM | 3610 nM | > 100 µM
15 | COC(=O)c1c(-c2c(Cl)cccc2Cl)noc1/C=C/Nc1ccccc1 | 290 nM | < 6.76 nM | > 10 µM
16 | CCc1nc2nc(C)cc(NCCc3cccc(C)c3)n2n1 | 334 nM | 453 nM | > 100 µM
17 | CCCCNCC(O)(c1ccc(Cl)cc1)c1ccc(Cl)cc1 | 720 nM | 99.7 nM | 38.5 µM
18 | CCc1ccc(NC(=O)c2sc3nc(N)c(C#N)c(-c4ccc(OC)c(OC)c4)c3c2N)cc1 | 5810 nM | 3990 nM | > 100 µM
19 | Oc1ccc(Nc2nc(N3CCCC3)c3ccccc3n2)cc1 | 584 nM | 926 nM | > 10 µM
20 | CCOC(=O)C(Cc1ccc(O)cc1)NC1=CC(=O)C(=O)c2ccccc21 (configuration not stated) | 305 nM | 333 nM | > 100 µM
21 | COc1cc(OC)cc(C(=O)Oc2ccccc2-c2nc3cc(C)ccn3c2NC(C)(C)CC(C)(C)C)c1 | 946 nM | 54 nM | > 10 µM
22 | COCCN(CC(O)CNC(=O)c1ccc2ccccc2n1)S(=O)(=O)c1c(C)noc1C (configuration not stated) | > 90 nM | > 895 nM | > 10 µM
23 | CCOc1ccc2[nH]c(=O)c(CN(CCc3ccccc3)C(=O)c3cnccn3)cc2c1 | > 428 nM | > 397 nM | > 10 µM

Row | SMILES | EC50 (Plasmodium falciparum [1]) | EC50 (Plasmodium falciparum [2]) | CC50 [3]
24 | COC(=O)C1=CNC=C(C(=O)OC)C1c1cc(OC)c(OC)c(OC)c1 | 8990 nM | 4500 nM | > 100 µM
25 | O=C(NCC1(c2ccccc2)CCCC1)C(=O)Nc1nncs1 | > 806 nM | > 360 nM | > 10 µM
26 | COc1ccc2c(C)nc(Nc3nc(C)cc(-c4ccccc4)n3)nc2c1 | 341 nM | 1160 nM | > 100 µM
27 | C[n+]1c(C=Cc2ccc(Cl)c(Cl)c2)ccc2ccccc21 | 524 nM | 1760 nM | 5.37 µM
28 | CCOC(=O)C1CCN(C(=O)CN2C(=O)c3ccccc3C2c2c[nH]c3ccccc23)CC1 (configuration not stated) | 519 nM | 513 nM | > 100 µM
29 | COc1cccc2c1OCC(C(=O)Nc1ccc(C)cc1)=C2 | 461 nM | > 12500 nM | 54.7 µM
30 | CC1CCCCN1CCCNc1ncc(C(=O)NCc2ccccc2)c(NCCc2ccccc2)n1 (configuration not stated) | 247 nM | > 878 nM | > 10 µM
31 | CN(C)c1ccc(/C=C2\C(=O)NC(=O)N(Cc3ccccc3Cl)C2=O)cc1 | > 1250 nM | 1110 nM | > 10 µM
32 | CCOC(=O)c1ccc(NC2=C(N3CCCCC3)C(=O)c3ccccc3C2=O)cc1 | 243 nM | 334 nM | > 80.5 µM
33 | CN(C)CCCNc1ncnc2c1[nH]c1ccc(Br)cc12 | 48.1 nM | 231 nM | 26.5 µM
34 | Cc1cccc(C)c1NC(=O)CN1C(=O)C(C)(C)Oc2ccc(C(=O)NC(C)(C)C)cc21 | > 9240 nM | 2070 nM | > 100 µM
35 | CCOC(=O)C1=C(C)NC2=C(C(=O)CC(C)(C)C2)C1c1ccccn1 (configuration not stated) | > 12500 nM | 1260 nM | > 100 µM
36 | CCCCCCCC[n+]1c(C)n(CC)c2ccc(Cl)cc21 | 139 nM | 239 nM | 54.9 µM
37 | CN(CCCNc1ccnc2cc(Cl)ccc12)C(=O)c1cc(Cl)cc(Cl)c1 | 235 nM | 460 nM | > 10 µM
38 | OCCN(CCO)CC(O)Cn1c2ccc(Br)cc2c2cc(Br)ccc21 (configuration not stated) | 2330 nM | 1550 nM | 27.3 µM
39 | O=C(Oc1ccccc1N1C(=O)C2C3C=CC(C3)C2C1=O)c1ccc([N+](=O)[O-])cc1 (configuration not stated) | > 9740 nM | 8070 nM | > 100 µM
40 | Cc1ccc(Cl)cc1Nc1nc2ccccc2n2c(C)nnc12 | > 12500 nM | 4470 nM | > 100 µM
41 | Cc1cc(Nc2cccc(C(F)(F)F)c2)nc2ccc(NC(=O)c3cncc(Br)c3)cc12 | 2450 nM | 3000 nM | > 84.4 µM
42 | CCCCCc1ccc(OCCOCC[n+]2ccccc2)c(CCCCC)c1 | 7.08 nM | 6.85 nM | > 10 µM
43 | COc1cccc(Nc2nc(NCC3CCCO3)c3ccccc3n2)c1 (configuration not stated) | 230 nM | 286 nM | 7.67 µM
44 | COc1ccc(OC)c(-c2ccc(O)c(CNCC3(N4CCCCC4)CCCCC3)c2)c1 | 43.7 nM | 11.3 nM | 38 µM
45 | Brc1cc(Br)c2c(-c3ccccc3)n(-c3ccccc3)nc(-c3ccccc3)c1-2 | 753 nM | > 1710 nM | > 10 µM
46 | CC(=NNC(=N)N)c1ccc(C)cc1 | 2040 nM | 250 nM | 19.3 µM

Row | SMILES | EC50 (Plasmodium falciparum [1]) | EC50 (Plasmodium falciparum [2]) | CC50 [3]
47 | CC(C)=CCCC1=CCC(CNCCCN(C)C)C(C)C1 (configuration not stated) | 1750 nM | 415 nM | 18.9 µM
48 | CCOC(=O)C1=C(C)NC2=C(C(=O)C(C(=O)OCC)C(c3ccccc3OC)C2)C1c1sccc1C (configuration not stated) | 984 nM | 235 nM | > 100 µM
49 | O=c1cc[nH]c2cc(N3CCCCCC3)c(F)cc12 | 1310 nM | 497 nM | > 92 µM
50 | N=c1c2ccccc2nnn1-c1ccc(C(F)(F)F)cc1 | 392 nM | 575 nM | > 100 µM
51 | COc1ccc2[nH]c(=O)c(CN(C(=S)Nc3ccccc3OC)C3CCCC3)cc2c1 | 995 nM | 824 nM | > 100 µM
52 | COc1cc(C2CC(=O)NC3=C2C(=O)CC(c2ccccc2Cl)C3)ccc1O (configuration not stated) | 815 nM | 109 nM | > 100 µM
53 | Cn1c(SCC(=O)Nc2cccc(F)c2)nc2c(c1=O)SCC2 | 2380 nM | 2150 nM | > 100 µM
54 | CCOC(=O)N1CCc2c(sc(NCc3ccc(C)o3)c2C(=O)Nc2ccc(OC)cc2OC)C1 | 9100 nM | 3010 nM | > 100 µM
55 | CCC(/C=C1\Sc2ccc(OC)cc2N1CCCS(=O)(=O)O)=C\c1sc2ccc(OC)cc2[n+]1CCCS(=O)(=O)O | 473 nM | 1040 nM | 10.1 µM
56 | CCCCCCN(C(=O)c1cccc(F)c1)C(CC)c1nc2ccccc2c(=O)n1-c1ccccc1OC (configuration not stated) | 1070 nM | 509 nM | > 7.32 µM
57 | CC(C)c1ccc(NC(=O)c2ccc(NCCCN3CCN(c4cccc(Cl)c4)CC3)c([N+](=O)[O-])c2)cc1 | 1630 nM | 2810 nM | > 100 µM
58 | COc1ccc(CNC2CCN(CCN3CCCCC3)C(c3ccc(OCc4ccccc4)cc3)C2)cc1OC (configuration not stated) | 662 nM | 447 nM | 5.06 µM
59 | O=C(CCC1CCCC1)NCCCCNc1ccnc2cc(Cl)ccc12 | 486 nM | 175 nM | 2.27 µM
60 | CCOc1ccc2c(C)nc(NC(N)=NC(C)=O)nc2c1 | 3020 nM | > 12500 nM | > 100 µM
61 | CCCCCCN(C(=O)c1cccc(OC)c1)C(CC)c1nc2ccccc2c(=O)n1-c1ccc(Cl)cc1C (configuration not stated) | 1120 nM | > 178 nM | > 10 µM
62 | CCOC(=O)N1CCC(N2C(=O)c3ccccc3C2Nc2ccc(OCC)cc2)CC1 (configuration not stated) | > 12500 nM | 2580 nM | > 100 µM
63 | CCC(=O)NC(c1cccc([N+](=O)[O-])c1)c1ccc2cccnc2c1O (configuration not stated) | 3420 nM | 2600 nM | > 100 µM
64 | COC(=O)c1c(S(=O)(=O)NCc2cccc(Cl)c2)sc2c1CCN(C(=O)C1CCCO1)C2 (configuration not stated) | > 608 nM | > 360 nM | > 10 µM
65 | Cc1ccc(C2=NC(C(F)(F)F)(C(F)(F)F)N=C3C=CC(Cl)=CN32)cc1 | > 1210 nM | > 1300 nM | > 10 µM
66 | O=c1nc(C=Cc2ccc(Cl)cc2)oc2ccccc12 | 1100 nM | 1060 nM | > 100 µM
67 | CC(C)OC(=O)CSc1nnc(CNc2nc(-c3ccccc3)cs2)n1C | 1390 nM | 1380 nM | > 100 µM
68 | COc1ccc(C[C@H]2NC[C@H](O)[C@H]2OC(C)=O)cc1 [ANISOMYCIN] | 9.75 nM | 10.3 nM | > 2.36 µM
69 | Cc1ccc(C)c(Nc2nc(NCc3ccccc3)c3ccccc3n2)c1 | 246 nM | 90.2 nM | 14.5 µM
